Results reported in ChEMBL document CHEMBL1201862, “PubChem BioAssay data set” (2004).
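1) Cells in 96-well plates. 2) Compound, 48 h, 5 concentrations. 3) Linear interpolation between surrounding doses. 4) Unreached endpoint = highest concentration. At the GI50, growth is halved.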 Activity calls are given as the source filed them. Rule as the data show it: active = GI50 up to about 1.1 µM and inactive = higher.

How the values were obtained:
Assay in all cases: DTP human tumour cell line panel, 48 h
RXF 393 = system: RXF 393
HOP-92 = system: HOP-92
OVCAR-4 = system: OVCAR-4
HOP-62 = system: HOP-62
OVCAR-5 = system: OVCAR-5
OVCAR-8 = system: OVCAR-8
RPMI-8226 = system: RPMI-8226
CAKI-1 = system: CAKI-1
SK-MEL-2 = system: SK-MEL-2
SF-268 = system: SF-268
HCT-116 = system: HCT-116
NCI-H460 = system: NCI-H460
UO-31 = system: UO-31
OVCAR-3 = system: OVCAR-3
HT-29 = system: HT-29
SR = system: SR
MOLT-4 = system: MOLT-4
HCT-15 = system: HCT-15

Structure (SMILES) | GI50 (RXF 393) | GI50 (HOP-92) | GI50 (OVCAR-4) | GI50 (HOP-62) | GI50 (OVCAR-5) | GI50 (OVCAR-8) | GI50 (RPMI-8226) | GI50 (CAKI-1) | GI50 (SK-MEL-2) | GI50 (SF-268) | GI50 (HCT-116) | GI50 (NCI-H460) | GI50 (UO-31) | GI50 (OVCAR-3) | GI50 (HT-29) | GI50 (SR) | GI50 (MOLT-4) | GI50 (HCT-15)
CC(C)(C)C1CC[C@H]2c3c([nH]c4ccc(Br)cc34)[C@H]3C(=O)N(c4ccccc4)C(=O)[C@H]3[C@H]2C1 (some centres undefined) | 32.7 µM (inactive) | 23.1 µM (inactive) | 11.2 µM (inactive) | 54 µM (inactive) | > 100 µM (inactive) | 3.49 µM (inactive) | 98.2 µM (inactive) | 53.7 µM (inactive) | 50.9 µM (inactive) | 8.73 µM (inactive) | 11.3 µM (inactive) | 8.09 µM (inactive) | 74.8 µM (inactive) | 75.2 µM (inactive) | 43 µM (inactive) | 3.22 µM (inactive) | 15.6 µM (inactive) | –
N#CCC(=O)N/N=C1/C(=O)NC(=O)C(=O)C1c1nc2ccccc2s1 (centres undefined) | > 100 µM (inactive) | 67.5 µM (inactive) | > 100 µM (inactive) | > 100 µM (inactive) | > 100 µM (inactive) | > 100 µM (inactive) | > 100 µM (inactive) | > 100 µM (inactive) | > 100 µM (inactive) | > 100 µM (inactive) | > 100 µM (inactive) | – | > 100 µM (inactive) | > 100 µM (inactive) | > 100 µM (inactive) | 71.8 µM (inactive) | > 100 µM (inactive) | > 100 µM
Oc1nc2cc(Cl)ccc2nc1/C(=N\Nc1ccccc1)C(O)c1ccc(Cl)c(Cl)c1 (centres undefined) | > 100 µM (inactive) | > 100 µM (inactive) | > 100 µM (inactive) | > 100 µM (inactive) | > 100 µM (inactive) | > 100 µM (inactive) | > 100 µM (inactive) | – | > 100 µM (inactive) | 47.1 µM (inactive) | > 100 µM (inactive) | > 100 µM (inactive) | > 100 µM (inactive) | > 100 µM (inactive) | > 100 µM (inactive) | > 100 µM (inactive) | > 100 µM (inactive) | > 100 µM
Nc1ncnc2c1sc(=S)n2-c1ccccc1 | > 100 µM (inactive) | 40.8 µM (inactive) | > 100 µM (inactive) | > 100 µM (inactive) | > 100 µM (inactive) | > 100 µM (inactive) | > 100 µM (inactive) | > 100 µM (inactive) | > 100 µM (inactive) | > 100 µM (inactive) | > 100 µM (inactive) | > 100 µM (inactive) | 89.3 µM (inactive) | > 100 µM (inactive) | > 100 µM (inactive) | > 100 µM (inactive) | > 100 µM (inactive) | 96.8 µM
CCCCCCCCCCCCOP(N)(=O)OCCCCCCCCCCCC | > 100 µM (inactive) | – | – | > 100 µM (inactive) | – | > 100 µM (inactive) | > 100 µM (inactive) | – | – | > 100 µM (inactive) | > 100 µM (inactive) | > 100 µM (inactive) | > 100 µM (inactive) | > 100 µM (inactive) | – | > 100 µM (inactive) | > 100 µM (inactive) | > 100 µM
CC1(C)C(=O)C(C)(C)C1=S | – | – | > 100 µM (inactive) | > 100 µM (inactive) | > 100 µM (inactive) | > 100 µM (inactive) | > 100 µM (inactive) | > 100 µM (inactive) | > 100 µM (inactive) | > 100 µM (inactive) | > 100 µM (inactive) | > 100 µM (inactive) | > 100 µM (inactive) | > 100 µM (inactive) | > 100 µM (inactive) | > 100 µM (inactive) | > 100 µM (inactive) | > 100 µM
CCOP(=O)(C/C(O)=C1\C(=O)C(CCCNC(=O)OC(C)(C)C)N(Cc2ccc(OC)c(OC)c2)C1=O)OCC (centres undefined) | > 100 µM (inactive) | – | > 100 µM (inactive) | > 100 µM (inactive) | > 100 µM (inactive) | > 100 µM (inactive) | > 100 µM (inactive) | – | > 100 µM (inactive) | > 100 µM (inactive) | > 100 µM (inactive) | > 100 µM (inactive) | > 100 µM (inactive) | > 100 µM (inactive) | > 100 µM (inactive) | > 100 µM (inactive) | > 100 µM (inactive) | –
COC(C)(C)[C@H](O)C(O)CC(C)[C@@H]1CCC23CC12CCC1[C@@]2(C)CCC(OC(C)=O)C(C)(C)C2CC(OC2OC(COC(C)=O)C(O)C(O)C2O)[C@]13C (some centres undefined) | 4.05 µM (inactive) | 3.72 µM (inactive) | 4.55 µM (inactive) | 8.49 µM (inactive) | 2.34 µM (inactive) | 4.56 µM (inactive) | 0.264 µM (active) | 2.92 µM (inactive) | 9.29 µM (inactive) | 3.48 µM (inactive) | 2.26 µM (inactive) | 2.88 µM (inactive) | 6.95 µM (inactive) | 3.29 µM (inactive) | 1.22 µM (inactive) | – | 4.19 µM (inactive) | 1.86 µM
